ChEMBL document CHEMBL1201862, “PubChem BioAssay data set” (2004)
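Values below derive from 48-hour exposures of cells grown in 96-well plates, with endpoints linearly interpolated between the two concentrations bracketing the appropriate inhibition level. GI50 marks 50% less growth.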 Active and inactive are the calls of the source. Cut-off read from the data, not from the text of the source: active = GI50 up to about 1.1 µM and inactive = higher.

Assays:
Test in all cases: DTP human tumour cell line panel, 48 h
[1] = tested on: SW-620
[2] = tested on: OVCAR-3
[3] = tested on: HCT-15
[4] = tested on: EKVX
[5] = tested on: NCI-H460
[6] = tested on: MDA-N
[7] = tested on: T47D
[8] = tested on: MDA-MB-231
[9] = tested on: CAKI-1
[10] = tested on: SR
[11] = tested on: Malme-3M
[12] = tested on: A549
[13] = tested on: SK-OV-3
[14] = tested on: UACC-257
[15] = tested on: MDA-MB-435
[16] = tested on: HCT-116
[17] = tested on: SF-295
[18] = tested on: CCRF-CEM
[19] = tested on: OVCAR-5
[20] = tested on: ACHN
[21] = tested on: SK-MEL-28
[22] = tested on: KM12
[23] = tested on: NCI/ADR-RES
[24] = tested on: 786-0
[25] = tested on: SK-MEL-2
[26] = tested on: DU-145
[27] = tested on: SN12C
[28] = tested on: OVCAR-4
[29] = tested on: HCC 2998
[30] = tested on: NCI-H522
[31] = tested on: U-251
[32] = tested on: IGROV-1
[33] = tested on: RPMI-8226
[34] = tested on: HOP-62
[35] = tested on: HT-29
[36] = tested on: Hs-578T
[37] = tested on: HL-60
[38] = tested on: MOLT-4
[39] = tested on: SK-MEL-5
[40] = tested on: BT-549
[41] = tested on: LOX IMVI
[42] = tested on: OVCAR-8
[43] = tested on: A498
[44] = tested on: UO-31
[45] = tested on: MCF7
[46] = tested on: NCI-H226
[47] = tested on: SNB-19
[48] = tested on: COLO 205
[49] = tested on: M14
[50] = tested on: NCI-H23
[51] = tested on: SF-268
[52] = tested on: RXF 393
[53] = tested on: K562
[54] = tested on: PC-3
[55] = tested on: SNB-75
[56] = tested on: UACC-62
[57] = tested on: SF-539
[58] = tested on: TK-10

## O=C1C=CC(=O)c2c1ccc1c3ccccc3n(-c3ccccc3[N+](=O)[O-])c21
[1]
  GI50: 1.98 µM (inactive)
[2]
  GI50: 2.44 µM (inactive)
[3]
  GI50: 2.96 µM
[4]
  GI50: 8.22 µM (inactive)
[5]
  GI50: 9.82 µM (inactive)
[6]
  GI50: 3.04 µM (inactive)
[7]
  GI50: 1.33 µM (inactive)
[8]
  GI50: 2.76 µM (inactive)
[9]
  GI50: 1.47 µM (inactive)
[10]
  GI50: 0.444 µM (active)
[11]
  GI50: 2.17 µM (inactive)
[12]
  GI50: 21.7 µM (inactive)
[13]
  GI50: 17 µM (inactive)
[14]
  GI50: 3.56 µM (inactive)
[15]
  GI50: 2.26 µM (inactive)
[16]
  GI50: 2.79 µM (inactive)
[17]
  GI50: 22.6 µM (inactive)
[18]
  GI50: 0.181 µM (active)
[19]
  GI50: 17.3 µM (inactive)
[20]
  GI50: 1.71 µM (inactive)
[21]
  GI50: 8.55 µM (inactive)
[22]
  GI50: 8.97 µM (inactive)
[23]
  GI50: 5.05 µM (inactive)
[24]
  GI50: 2.13 µM (inactive)
[25]
  GI50: 13.3 µM (inactive)
[26]
  GI50: 4.68 µM (inactive)
[27]
  GI50: 4.01 µM (inactive)
[28]
  GI50: 2.59 µM (inactive)
[29]
  GI50: 3.42 µM (inactive)
[30]
  GI50: 1.63 µM (inactive)
[31]
  GI50: 4.59 µM (inactive)
[32]
  GI50: 1.94 µM (inactive)
[33]
  GI50: 0.71 µM (active)
[34]
  GI50: 18.6 µM (inactive)
[35]
  GI50: 5.2 µM (inactive)
[36]
  GI50: 10.7 µM (inactive)
[37]
  GI50: 1.06 µM (active)
[38]
  GI50: 0.543 µM (active)
[39]
  GI50: 6.89 µM (inactive)
[40]
  GI50: 4.97 µM (inactive)
[41]
  GI50: 1.93 µM (inactive)
[42]
  GI50: 2.03 µM (inactive)
[43]
  GI50: 20.7 µM (inactive)
[44]
  GI50: 1.44 µM (inactive)
[45]
  GI50: 3.3 µM (inactive)
[46]
  GI50: 20.2 µM (inactive)
[47]
  GI50: 9.84 µM (inactive)
[48]
  GI50: 2.07 µM (inactive)
[49]
  GI50: 2.03 µM (inactive)
[50]
  GI50: 4.55 µM (inactive)
[51]
  GI50: 2.44 µM (inactive)
[52]
  GI50: 1.62 µM (inactive)
[53]
  GI50: 0.828 µM (active)
[54]
  GI50: 3.65 µM (inactive)
[55]
  GI50: 13.9 µM (inactive)
[56]
  GI50: 4.91 µM (inactive)
[57]
  GI50: 22.5 µM (inactive)
[58]
  GI50: 2.44 µM (inactive)

## Cn1c2ccccc2c(=O)c2cccc(C(=O)NC(CCC(N)=O)C(=O)O)c21 (stereo unspecified)
[1]
  GI50: > 100 µM (inactive)
[2]
  GI50: > 100 µM (inactive)
[3]
  GI50: > 100 µM
[4]
  GI50: > 100 µM (inactive)
[5]
  GI50: > 100 µM (inactive)
[6]
  GI50: > 100 µM (inactive)
[7]
  GI50: > 100 µM (inactive)
[8]
  GI50: > 100 µM (inactive)
[9]
  GI50: > 100 µM (inactive)
[10]
  GI50: 62.1 µM (inactive)
[11]
  GI50: > 100 µM (inactive)
[12]
  GI50: > 100 µM (inactive)
[13]
  GI50: > 100 µM (inactive)
[14]
  GI50: > 100 µM (inactive)
[15]
  GI50: > 100 µM (inactive)
[16]
  GI50: > 100 µM (inactive)
[17]
  GI50: > 100 µM (inactive)
[19]
  GI50: > 100 µM (inactive)
[20]
  GI50: > 100 µM (inactive)
[21]
  GI50: > 100 µM (inactive)
[22]
  GI50: > 100 µM (inactive)
[23]
  GI50: 60.3 µM (inactive)
[24]
  GI50: > 100 µM (inactive)
[25]
  GI50: > 100 µM (inactive)
[26]
  GI50: > 100 µM (inactive)
[27]
  GI50: > 100 µM (inactive)
[28]
  GI50: > 100 µM (inactive)
[29]
  GI50: > 100 µM (inactive)
[31]
  GI50: > 100 µM (inactive)
[32]
  GI50: > 100 µM (inactive)
[33]
  GI50: > 100 µM (inactive)
[34]
  GI50: > 100 µM (inactive)
[35]
  GI50: > 100 µM (inactive)
[36]
  GI50: > 100 µM (inactive)
[37]
  GI50: 0.0585 µM (active)
[38]
  GI50: > 100 µM (inactive)
[39]
  GI50: > 100 µM (inactive)
[40]
  GI50: > 100 µM (inactive)
[41]
  GI50: > 100 µM (inactive)
[42]
  GI50: > 100 µM (inactive)
[43]
  GI50: > 100 µM (inactive)
[44]
  GI50: > 10 µM (inactive)
[45]
  GI50: > 100 µM (inactive)
[46]
  GI50: > 100 µM (inactive)
[47]
  GI50: > 100 µM (inactive)
[48]
  GI50: > 100 µM (inactive)
[49]
  GI50: > 100 µM (inactive)
[50]
  GI50: > 100 µM (inactive)
[51]
  GI50: > 100 µM (inactive)
[53]
  GI50: > 100 µM (inactive)
[54]
  GI50: > 100 µM (inactive)
[55]
  GI50: > 100 µM (inactive)
[56]
  GI50: > 100 µM (inactive)
[57]
  GI50: > 100 µM (inactive)
[58]
  GI50: > 100 µM (inactive)

## O=C(O)C1CC2(C1)CC(C(=O)O)C2 (stereo unspecified)
[1]
  GI50: > 100 µM (inactive)
[2]
  GI50: > 100 µM (inactive)
[3]
  GI50: > 100 µM
[4]
  GI50: > 100 µM (inactive)
[5]
  GI50: > 100 µM (inactive)
[6]
  GI50: > 100 µM (inactive)
[7]
  GI50: > 100 µM (inactive)
[8]
  GI50: > 100 µM (inactive)
[9]
  GI50: > 100 µM (inactive)
[10]
  GI50: > 100 µM (inactive)
[11]
  GI50: > 100 µM (inactive)
[12]
  GI50: > 100 µM (inactive)
[13]
  GI50: > 100 µM (inactive)
[14]
  GI50: > 100 µM (inactive)
[15]
  GI50: > 100 µM (inactive)
[16]
  GI50: > 100 µM (inactive)
[17]
  GI50: > 100 µM (inactive)
[19]
  GI50: > 100 µM (inactive)
[20]
  GI50: > 100 µM (inactive)
[21]
  GI50: > 100 µM (inactive)
[22]
  GI50: > 100 µM (inactive)
[23]
  GI50: > 100 µM (inactive)
[24]
  GI50: > 100 µM (inactive)
[25]
  GI50: > 100 µM (inactive)
[26]
  GI50: > 100 µM (inactive)
[27]
  GI50: > 100 µM (inactive)
[28]
  GI50: > 100 µM (inactive)
[29]
  GI50: > 100 µM (inactive)
[30]
  GI50: > 100 µM (inactive)
[31]
  GI50: > 100 µM (inactive)
[32]
  GI50: > 100 µM (inactive)
[33]
  GI50: > 100 µM (inactive)
[34]
  GI50: > 100 µM (inactive)
[35]
  GI50: > 100 µM (inactive)
[36]
  GI50: > 100 µM (inactive)
[38]
  GI50: > 100 µM (inactive)
[39]
  GI50: > 100 µM (inactive)
[40]
  GI50: > 100 µM (inactive)
[41]
  GI50: > 100 µM (inactive)
[43]
  GI50: > 100 µM (inactive)
[44]
  GI50: > 100 µM (inactive)
[45]
  GI50: > 100 µM (inactive)
[47]
  GI50: > 100 µM (inactive)
[48]
  GI50: > 100 µM (inactive)
[49]
  GI50: > 100 µM (inactive)
[50]
  GI50: > 100 µM (inactive)
[52]
  GI50: > 100 µM (inactive)
[53]
  GI50: > 100 µM (inactive)
[54]
  GI50: > 100 µM (inactive)
[55]
  GI50: > 100 µM (inactive)
[56]
  GI50: > 100 µM (inactive)
[57]
  GI50: > 100 µM (inactive)
[58]
  GI50: > 100 µM (inactive)
